Measurements: patent publication US20040142851A1, “Hydrazinopeptoids and their uses for treating cancers” (priority 2001, published 2004)
One block for each molecule: values may come before it. Square brackets hold non-standard residues; d marks the D form. Peptide text beside a SMILES is read from it. * marks the point of attachment. Nle = CCCC[C@H](N)C(=O)O; Cbz = O=C(OCc1ccccc1)*

How the values were obtained:
XL2 cells [1] = experiment: FACS analysis, % of cells blocked in G2/M in XL2 cell cultures; format: cell-based, Xenopus; conditions: for concentration in the medium necessary to obtain a blockage in mitosis / percentage of cells blocked in mitosis, compared with ALLN (in words): XL2 cell cultures
Protocol: The molecules synthesized were tested in vitro on the proteolytic activities described of the proteasome, then in vivo on Xenopus (XL2) cell cultures. Knowledge of the cell cycle of XL2 cells has made it possible to carry out synchronization experiments and also to evaluate the duration of each of the phases of the cycle. […]

[2] = biological target: purified proteasome (chymotrypsin activity) (Homo sapiens, UniProt P28074); experiment: Inhibition of the chymotrypsin catalytic activity of the purified proteasome; format: biochemical
Source text: In vitro analyses of the inhibitory potentialities of the Hydrazinoazapeptoids synthesized vis-à-vis the enzyme activities of the proteasome.
The inhibitory potentialities of the hydrazinoazapeptoids have been quantified with respect to the chymotrypsin enzyme activities of the purified proteasome. The results are expressed as percentages of activity inhibition.
Measurement of the inhibitory properties of the synthesized compounds on the chymotrypsin catalytic activity of the purified proteasome.

[3] = system: mouse leukaemia cell cultures; experiment: Antiproliferative effect on mouse leukaemia cell cultures; format: cell-based
Source text: We have analyzed the effect of the retro compounds on mouse leukaemia cell cultures and confirm that among these products, three compounds have an antiproliferative effect. This effect has been observed on two other cell types, rat hepatocytes and a human breast cancer line.

XL2 cells [4] = experiment: Fluorescence microscopy analysis of the stages of mitosis; format: cell-based, Xenopus; conditions: for % Anaphase + Telophase / % Metaphase / % Prophase: 50 cells blocked in mitosis
Protocol: The molecules synthesized were tested in vitro on the proteolytic activities described of the proteasome, then in vivo on Xenopus (XL2) cell cultures. Knowledge of the cell cycle of XL2 cells has made it possible to carry out synchronization experiments and also to evaluate the duration of each of the phases of the cycle.
Observation of the nuclear content makes it possible to determine the different stages of the mitosis. The following results were obtained using 50 cells blocked in mitosis. The first 7 inhibitors were studied using fluorescence microscopy.

[5] = system: cell cycle progression (mitosis); conditions: lower concentrations only slow down the mitosis; cited from earlier work

Molecule: F3COC—N^αhLeu-N-azaLeu-Z [PR5]
effect on proliferation (in words) [3]: inhibit proliferation | effect on viability of the cells / cell death (in words) [3]: cause cell death

Molecule: BrH2COC—N^αhPhe-N-azaLeu-Z [PR2]
effect on proliferation (in words) [3]: inhibit proliferation | effect on viability of the cells / cell death (in words) [3]: cause cell death

Molecule: Z-N^αhLeu-N-azaPhe-CH2Br [P21]
effect on proliferation (in words) [3]: proliferation inhibitors | effect on viability of the cells / cell death (in words) [3]: do not affect the viability of the cells

Molecule: BrH2COC—N^αhPhe-azaLeu-Z [PR3]
effect on proliferation (in words) [3]: inhibit proliferation | effect on viability of the cells / cell death (in words) [3]: cause cell death

Molecule: CC(C)CN(CC(=O)N(CC(C)C)NC(=O)CC#N)NC(=O)OC(C)(C)C [P12]
% of cells blocked in G2/M (XL2 cells [1]; 156 μM, 7 h): 23.5% | inhibition at 2000 µM ([2]; 2 mM compound): 48%

Molecule: CC(C)C[C@@H](C=O)NC(=O)[C@H](CC(C)C)NC(=O)[C@H](CC(C)C)NC(=O)OCc1ccccc1 [MG132, benzyloxycarbonyl leucinyl-leucinyl-leucinal, reference compound] (Cbz-Leu-Leu-Leu-aldehyde)
% of cells blocked in G2/M (XL2 cells [1]; 50 μM, 7 h): 60.6%

Molecule: Z-N^αhLeu-N-azaLys-COCH2Br [P22]
effect on proliferation (in words) [3]: inhibit proliferation | effect on viability of the cells / cell death (in words) [3]: cause cell death

Molecule: o-B(OH)2-Ph-HC═N^αhLeu-N-azaLeu-Z [PR6]
effect on proliferation (in words) [3]: proliferation inhibitors | effect on viability of the cells / cell death (in words) [3]: do not affect the viability of the cells

Molecule: PhCO—N^αhLeu-N-azaLeu-CO2Et [P10]
% of cells blocked in G2/M (XL2 cells [1]; 143 μM, 7 h): 23.1% | % inhibition of chymotrypsin activity of the purified proteasome ([2]; 2 mM compound): 42%

Molecule: o-B(OH)2-Ph-HC═N^αhPhe-N-azaLeu-Z [PR7]
effect on proliferation (in words) [3]: proliferation inhibitors | effect on viability of the cells / cell death (in words) [3]: do not affect the viability of the cells

Molecule: CCCC[C@@H](C=O)NC(=O)[C@H](CC(C)C)NC(=O)[C@H](CC(C)C)NC(C)=O [ALLN, N-acetyl-leucinyl-leucinyl-norleucinal, reference compound] (Ac-Leu-Leu-[Nle]-aldehyde)
concentration producing an extended stop in mitosis [5]: > 50 µg/mL | % Anaphase + Telophase (XL2 cells [4]): 3% | % Metaphase (XL2 cells [4]): 83% | % Prophase (XL2 cells [4]): 15% | % of cells blocked in G2/M (XL2 cells [1]; 100 μM, 7 h): 53% | concentration in the medium necessary to obtain a blockage in mitosis (XL2 cells [1]): 100 µM | % inhibition of chymotrypsin activity of the purified proteasome ([2]; 1 mM compound): 91% | inhibition at 1000 µM ([2]; 1 mM compound): 90%

Molecule: PhCO—N^αhLeu-N-azaLeu-CF3 [P11]
% of cells blocked in G2/M (XL2 cells [1]; 144 μM, 7 h): 17.2% | % inhibition of chymotrypsin activity of the purified proteasome ([2]; 2 mM compound): 40%

Molecule: m-B(OH)2-Ph-HC═N^αhPhe-N-azaLeu-Z [PR8]
effect on proliferation (in words) [3]: inhibit proliferation | effect on viability of the cells / cell death (in words) [3]: cause cell death

Now from value to molecule, other results behind:

inhibition at 2000 µM ([2]; 2 mM compound): 34%
Molecule: CCSCC(=O)NN(CC(C)C)C(=O)CN(CC(C)C)NC(=O)OC(C)(C)C [P16]
% of cells blocked in G2/M (XL2 cells [1]; 143 μM, 7 h): 24.2%

inhibition at 2000 µM ([2]; 2 mM compound): 30%
Molecule: CCOC(=O)C(=O)NN(CC(C)C)C(=O)CN(CC(C)C)NC(=O)OC(C)(C)C [P9, Boc-N^αhLeu-N-azaLeu-CO2Et]
% of cells blocked in G2/M (XL2 cells [1]; 144 μM, 7 h): 14.1%

% inhibition of chymotrypsin activity of the purified proteasome ([2]; 2 mM compound): 71% | inhibition at 2000 µM ([2]; 2 mM compound): 70%
Molecule: CC(C)CN(CC(=O)N(CC(C)C)NC(=O)CBr)NC(=O)OC(C)(C)C [P14, Boc-N^αhLeu-N-azaLeu-CH2Br]
% of cells blocked in G2/M (XL2 cells [1]; 2 μM, 0.5 h): 48.2% | % of cells blocked in G2/M (XL2 cells [1]; 4 μM, 0.5 h): 44.8% | % of cells blocked in G2/M (XL2 cells [1]; 11 μM, 0.5 h): 47.4% | % of cells blocked in G2/M (XL2 cells [1]; 22 μM, 0.5 h): 46.2% | % of cells blocked in G2/M (XL2 cells [1]; 45 μM, 0.5 h): 48.3% | % of cells blocked in G2/M (XL2 cells [1]; 91 μM, 0.5 h): 50.2% | % of cells blocked in G2/M (XL2 cells [1]; 137 μM, 1 h): 50.2% | concentration in the medium necessary to obtain a blockage in mitosis (XL2 cells [1]): 2 µM | percentage of cells blocked in mitosis, compared with ALLN (in words) (XL2 cells [1]): activity comparable to that of the ALLN

melting point: 147 °C | inhibition at 2000 µM ([2]; 2 mM compound): 32%
Molecule: CCOC(=O)C(=O)N(CC(C)C)NC(=O)CN(CC(C)C)NC(=O)OC(C)(C)C [P5, Boc-N^αhLeu-azaLeu-CO2Et]
% Anaphase + Telophase (XL2 cells [4]): 37% | % Metaphase (XL2 cells [4]): 45% | % Prophase (XL2 cells [4]): 18% | % of cells blocked in G2/M (XL2 cells [1]; 144 μM, 7 h): 5.2%

inhibition at 2000 µM ([2]; 2 mM compound): 29%
Molecule: CCCCN(NC(=O)C(F)(F)F)C(=O)CN(CC(C)C)NC(=O)OC(C)(C)C [P4, Boc-N^αhLeu-N-azaNorleu-CF3]
% Anaphase + Telophase (XL2 cells [4]): 42% | % Metaphase (XL2 cells [4]): 42% | % Prophase (XL2 cells [4]): 16% | % of cells blocked in G2/M (XL2 cells [1]; 145 μM, 4 h): 16.5% | % of cells blocked in G2/M (XL2 cells [1]; 145 μM, 8 h): 13.4%

inhibition at 2000 µM ([2]; 2 mM compound): 47%
Molecule: COC(=O)N(CC(C)C)NC(=O)CN(CC(C)C)NC(=O)OC(C)(C)C [P2]
% Anaphase + Telophase (XL2 cells [4]): 46% | % Metaphase (XL2 cells [4]): 36% | % Prophase (XL2 cells [4]): 18% | % of cells blocked in G2/M (XL2 cells [1]; 160 μM, 7 h): 6.7%

melting point: 105 °C | inhibition at 2000 µM ([2]; 2 mM compound): 29%
Molecule: CC(C)CN(CC(=O)NN(CC(C)C)C(=O)C(F)(F)F)NC(=O)OC(C)(C)C [P1, Boc-N^αhLeu-azaLeu-CF3]
% Anaphase + Telophase (XL2 cells [4]): 51% | % Metaphase (XL2 cells [4]): 35% | % Prophase (XL2 cells [4]): 14% | % of cells blocked in G2/M (XL2 cells [1]; 145 μM, 7 h): 9.2%

inhibition at 2000 µM ([2]; 2 mM compound): 38%
Molecule: CC(C)CN(CC(=O)N(CC(C)C)/N=C/c1cccc(B(O)O)c1)NC(=O)OC(C)(C)C [P15, Boc-N^αhLeu-N-azaLeu-CH-Ph-m-B(OH)2]
% of cells blocked in G2/M (XL2 cells [1]; 133 μM, 7 h): 35.8%

inhibition at 2000 µM ([2]; 2 mM compound): 38%
Molecule: CC(C)CN(CC(=O)N(CC(N)=O)CC(C)C)NC(=O)OC(C)(C)C [P6]
inhibitory selectivity during the different stages of mitosis (in words) (XL2 cells [4]): mostly blocks cells at the end of mitosis | % Anaphase + Telophase (XL2 cells [4]): 58% | % Metaphase (XL2 cells [4]): 24% | % Prophase (XL2 cells [4]): 18% | % of cells blocked in G2/M (XL2 cells [1]; 167 μM, 7 h): 9.2%

melting point: 124 °C | inhibition at 2000 µM ([2]; 2 mM compound): 35%
Molecule: CC(C)CN(CC(=O)N(CC(C)C)NC=O)NC(=O)OC(C)(C)C [P13, Boc-N^αhLeu-N-azaLeu-H]
% of cells blocked in G2/M (XL2 cells [1]; 174 μM, 7 h): 20.8%

melting point: 110 °C | inhibition at 2000 µM ([2]; 2 mM compound): 28%
Molecule: CC(C)CN(CC(=O)N(CC(C)C)NC(=O)C(F)(F)F)NC(=O)OC(C)(C)C [P8, Boc-N^αhLeu-N-azaLeu-CF3]
% of cells blocked in G2/M (XL2 cells [1]; 146 μM, 7 h): 19.1%

melting point: 138 °C | inhibition at 2000 µM ([2]; 2 mM compound): 23%
Molecule: CC(C)CN(CC(=O)N(CC(C)C)NC(N)=O)NC(=O)OC(C)(C)C [P7, Boc-N^αhLeu-N-azaLeu-CONH2]
inhibitory selectivity during the different stages of mitosis (in words) (XL2 cells [4]): much less selective | % Anaphase + Telophase (XL2 cells [4]): 38% | % Metaphase (XL2 cells [4]): 35% | % Prophase (XL2 cells [4]): 27% | % of cells blocked in G2/M (XL2 cells [1]; 167 μM, 7 h): 12.3%

melting point: 105 °C | inhibition at 2000 µM ([2]; 2 mM compound): 31%
Molecule: CCCCN(NC(=O)C(=O)OCC)C(=O)CN(CC(C)C)NC(=O)OC(C)(C)C [P3, Boc-N^αhLeu-N-azaNorleu-CO2Et]
% Anaphase + Telophase (XL2 cells [4]): 53% | % Metaphase (XL2 cells [4]): 26% | % Prophase (XL2 cells [4]): 21% | % of cells blocked in G2/M (XL2 cells [1]; 144 μM, 4 h): 14.9% | % of cells blocked in G2/M (XL2 cells [1]; 144 μM, 6 h): 15.2% | % of cells blocked in G2/M (XL2 cells [1]; 144 μM, 8 h): 13.8%

melting point: 186 °C
Molecule: CC(C)CN(CC(=O)N(CC(C)C)/N=C/c1ccc(B(O)O)cc1)NC(=O)OC(C)(C)C [P15p, Boc-N^αhLeu-N-azaLeu-CH-Ph-p-B(OH)2]

melting point: 159 °C
Molecule: CC(C)CN(CC(=O)N(CC(C)C)/N=C/c1ccccc1B(O)O)NC(=O)OC(C)(C)C [P15o, Boc-N^αhLeu-N-azaLeu-CH-Ph-o-B(OH)2]

melting point: 135 °C | % inhibition of chymotrypsin activity of the purified proteasome ([2]; 2 mM compound): 80% | inhibition at 2000 µM ([2]; 2 mM compound): 70%
Molecule: CC(C)CN(CC(=O)N(Cc1ccccc1)NC(=O)CBr)NC(=O)OC(C)(C)C [P17, Boc-N^αhLeu-N-azaPhe-COCH2Br]
% of cells blocked in G2/M (XL2 cells [1]; 21 μM, 0.5 h): 46.8% | % of cells blocked in G2/M (XL2 cells [1]; 42 μM, 0.5 h): 47.3% | % of cells blocked in G2/M (XL2 cells [1]; 85 μM, 0.5 h): 50.9% | % of cells blocked in G2/M (XL2 cells [1]; 127 μM, 0.5 h): 42.8% | % of cells blocked in G2/M (XL2 cells [1]; 127 μM, 1 h): 41.7% | % of cells blocked in G2/M (XL2 cells [1]; 127 μM, 2 h): 38.3% | percentage of cells blocked in mitosis, compared with ALLN (in words) (XL2 cells [1]): activity comparable to that of the ALLN
